In the supplement of paper PMC10307832:

Assays:
Assay in all cases: relative viability (nuclei count vs DMSO), 5 days (fraction); higher = more cells survive
Crizotinib + OSI-027 = compound: C[C@@H](Oc1cc(-c2cnn(C3CCNCC3)c2)cnc1N)c1c(Cl)ccc(F)c1Cl [Crizotinib] + COc1cccc2cc(-c3nc([C@H]4CC[C@H](C(=O)O)CC4)n4ncnc(N)c34)[nH]c12 [OSI-027] (partner 0.5 µM)
Method in brief: (§1)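 Values are medians from duplicate plates. Each reflects relative viability, defined as the nuclei count of treated wells over that of vehicle wells. Lung cancer cell lines in 1536-well plates were pin-tool dosed one day after seeding with one drug alone or with a fixed anchor-drug dose plus five library-drug doses (not always all listed) in √10 steps, then fixed, stained and imaged at 4× after 5 days.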

Carfilzomib + Navitoclax = compound: CC(C)C[C@H](NC(=O)[C@H](CCc1ccccc1)NC(=O)CN1CCOCC1)C(=O)N[C@@H](Cc1ccccc1)C(=O)N[C@@H](CC(C)C)C(=O)[C@@]1(C)CO1 [Carfilzomib] + CC1(C)CCC(c2ccc(Cl)cc2)=C(CN2CCN(c3ccc(C(=O)NS(=O)(=O)c4ccc(N[C@H](CCN5CCOCC5)CSc5ccccc5)c(S(=O)(=O)C(F)(F)F)c4)cc3)CC2)C1 [Navitoclax] (partner 0.5 µM)
Method in brief: as §1

Olaparib + Bortezomib = compound: O=C(c1cc(Cc2n[nH]c(=O)c3ccccc23)ccc1F)N1CCN(C(=O)C2CC2)CC1 [Olaparib] + CC(C)C[C@H](NC(=O)[C@H](Cc1ccccc1)NC(=O)c1cnccn1)B(O)O [Bortezomib] (partner 0.002 µM)
Method in brief: as §1

Olaparib + Linsitinib = compound: O=C(c1cc(Cc2n[nH]c(=O)c3ccccc23)ccc1F)N1CCN(C(=O)C2CC2)CC1 [Olaparib] + C[C@]1(O)C[C@@H](c2nc(-c3ccc4ccc(-c5ccccc5)nc4c3)c3c(N)nccn32)C1 [Linsitinib] (partner 1 µM)
Method in brief: as §1

| Cell Line | relative viability (Crizotinib + OSI-027; first compound 0.03162 µM) | relative viability (Crizotinib + OSI-027; first compound 0.1 µM) | relative viability (Crizotinib + OSI-027; first compound 1 µM) | relative viability (Carfilzomib + Navitoclax; first compound 0.001 µM) | relative viability (Carfilzomib + Navitoclax; first compound 0.003162 µM) | relative viability (Carfilzomib + Navitoclax; first compound 0.01 µM) | relative viability (Carfilzomib + Navitoclax; first compound 0.03162 µM) | relative viability (Carfilzomib + Navitoclax; first compound 0.1 µM) | relative viability (Olaparib + Bortezomib; first compound 0.08 µM) | relative viability (Olaparib + Bortezomib; first compound 0.253 µM) | relative viability (Olaparib + Bortezomib; first compound 2.53 µM) | relative viability (Olaparib + Bortezomib; first compound 8 µM) | relative viability (Olaparib + Linsitinib; first compound 0.08 µM) | relative viability (Olaparib + Linsitinib; first compound 0.253 µM) | relative viability (Olaparib + Linsitinib; first compound 2.53 µM) | relative viability (Olaparib + Linsitinib; first compound 8 µM) | relative viability (Crizotinib + OSI-027; first compound 0.01 µM) | relative viability (Crizotinib + OSI-027; first compound 0.3162 µM) |
| --- | --- | --- | --- | --- | --- | --- | --- | --- | --- | --- | --- | --- | --- | --- | --- | --- | --- | --- |
| NCI-H727 | 0.561 | 0.774 | 0.551 | 0.429 | 0.637 | 0.601 | 0.165 | 0.137 | 0.844 | 0.829 | 0.709 | 0.514 | 0.283 | 0.241 | 0.247 | 0.282 | – | – |
| NCI-H838 | 0.369 | 0.409 | 0.392 | 1.24 | 1.26 | 1.16 | 0.686 | 0.153 | 0.956 | 0.738 | 0.771 | 0.9 | 1.05 | 0.928 | 0.971 | 0.933 | 0.348 | 0.393 |
| NCI-H1355 | 0.44 | 0.394 | 0.361 | 0.792 | 1.02 | 0.979 | 0.486 | 0.133 | 1.19 | 1.14 | 1.15 | 1.12 | 0.882 | 0.811 | 0.775 | 0.637 | 0.358 | 0.369 |
| NCI-H1437 | 0.901 | 0.824 | – | 1.08 | 1.12 | 1.12 | 0.759 | 0.12 | 0.504 | 0.422 | 0.529 | 0.424 | 1.18 | 0.927 | 1.02 | 0.788 | 0.758 | – |
| NCI-H1651 | 0.852 | 0.727 | 0.8 | 1.11 | 1.06 | 0.728 | 0.123 | 0.0777 | 0.892 | 0.901 | 0.781 | 0.451 | 1.01 | 0.821 | 0.679 | 0.297 | 0.546 | 0.73 |
| NCI-H1666 | 0.893 | 0.837 | 0.855 | 1.07 | 0.963 | 1.05 | 0.929 | 0.263 | 0.771 | 0.799 | 0.633 | 0.65 | 0.901 | 0.841 | 0.75 | 0.655 | 0.8 | 0.903 |
| NCI-H1734 | 0.606 | 0.473 | 0.555 | 0.831 | 1.05 | 0.803 | 0.584 | 0.0981 | 1.06 | 0.835 | 0.91 | 0.614 | 0.998 | 0.809 | 0.799 | 0.579 | 0.592 | – |
| NCI-H1755 | 0.716 | 0.625 | 0.644 | 0.972 | 0.989 | 0.994 | 0.841 | 0.198 | 1.03 | 0.92 | 0.921 | 0.893 | 1.03 | 0.917 | 0.92 | 0.918 | 0.678 | 0.531 |
| NCI-H1792 | 0.748 | 0.656 | 0.722 | 0.575 | 0.628 | 0.563 | 0.612 | 0.555 | 1.02 | 0.735 | 0.804 | 0.784 | 0.7 | 0.46 | 0.421 | 0.324 | 0.72 | – |
